These results are taken from EP2799881A1, “Method for the determination of the presence of an antibiotic in a fluid” (DSM IP Assets B.V., priority 2013, dated 2014).

The test concerns test organism. Nature of the test: Microbial growth inhibition test (DSM Delvotest® SP-NT), detection limit of antibiotics in spiked milk, with tomatidine added to the test medium. Format: cell-based. The settings on record: 64 °C. As for the experimental part:
As a reference, a commercially available test system without any added steroidal glycoalkaloid aglycone (DSM Delvotest® SP-NT, plates containing 8 x 12 test wells) was used. In addition, four different test systems were prepared by modifying the reference test by adding the steroidal glycoalkaloid aglycone tomatidine to the test medium in a final concentration of 50 ppb, 100 ppb, 500 ppb or 2000 ppb. The detection limits of two different antibiotics were measured in the reference test and in the tests with modified medium containing different concentrations of tomatidine. The antibiotics that were measured were streptomycin and dihydrostreptomycin (DH-streptomycin) (both belonging to the aminoglycoside antibiotic family). Five different concentrations of each antibiotic (see Table 1) were measured. Hundred microliter antibiotic-free milk or hundred microliter milk spiked with the respective concentrations of antibiotic was added to the test medium (170 µl) and incubated at 64 °C in a water bath. The tests were visually determined at the point in time where a sample without antibiotic had changed colour from purple to yellow. At this point, the plates were cooled in an ice bath for 5 minutes. The cooled plates were scanned on a Delvo® scanner. The colour of each well was expressed as a Z-value; a purple colour gives rise to a positive Z-value, while a yellow colour has a negative Z-value. The Z-value of test results with samples without antibiotic is typically -5 < Z < -10. Detailed description of the scanning technology and the expression of the colour in Z-values are described in WO 03/033728. For the determination of the detection limit for each antibiotic, a dose-response function (Z-value versus concentration of antibiotic) was constructed. The detection limit is defined as the antibiotic concentration where the S-shaped dose-response function has a Z-value equal to the cut-off value.

The mark [1] stands for this setting: Tomatidine concentration in test 0 ppb (reference Delvotest® SP-NT), cut-off Z-value 0.
[2] abbreviates: Tomatidine concentration in test 50 ppb, cut-off Z-value 0, tomatidine 50 ppb in test.
The mark [3] stands for this setting: Tomatidine concentration in test 100 ppb, cut-off Z-value 0, tomatidine 100 ppb in test.
Where [4] appears, read: Tomatidine concentration in test 500 ppb, cut-off Z-value 0, tomatidine 500 ppb in test.
[5] abbreviates: Tomatidine concentration in test 2000 ppb, cut-off Z-value 0, tomatidine 2000 ppb in test.

`CN[C@@H]1[C@H](O[C@H]2[C@H](O[C@H]3[C@H](O)[C@@H](O)[C@H](NC(=N)N)[C@@H](O)[C@@H]3NC(=N)N)O[C@@H](C)[C@]2(O)CO)O[C@@H](CO)[C@H](O)[C@H]1O` [DH-streptomycin, dihydrostreptomycin]: the Detection limit under setting [1] was determined as 1471 ppb; the Detection limit under setting [2] stood at 1075 ppb; the Detection limit under setting [3] came to 365 ppb; the Detection limit under setting [4] was 150 ppb; the Detection limit under setting [5] stood at 115 ppb.
`[H]/N=C(/N)N[C@H]1[C@H](O)[C@@H](O)[C@H](O[C@@H]2O[C@@H](C)[C@](O)(C=O)[C@H]2O[C@@H]2O[C@@H](CO)[C@H](O)[C@@H](O)[C@@H]2NC)[C@@H](N/C(N)=N\[H])[C@@H]1O` [Streptomycin, streptomycin]: the Detection limit by setting is: under setting [1], 2005 ppb; under setting [2], 1523 ppb; under setting [3], 398 ppb; under setting [4], 295 ppb; under setting [5], 79 ppb.
